Tested on: renal interstitial fibrosis in rats
Experiment: Renal interstitial fibrosis in rats with unilateral urethral obstruction
Format: in vivo, Sprague Dawley rats
Settings: for HYP: left kidney; for HYP / FN: day 10; for FN: serum
Protocol: 130 rats were randomly divided into 13 groups, namely, a sham operation group, a model group, benazapril p.o. Group at 10 mg/kg, RA i.v. groups at 2.5 mg/kg, 5 mg/kg, 25 mg/kg, 75 mg/kg, and 150 mg/kg of RA, and RA p.o. groups at 2.5 mg/kg, 5 mg/kg, 25 mg/kg, 150 mg/kg, and 300 mg/kg of RA. The animals were acclimated for a week before they were all anaesthetised with an i.p. dose of 10% chloral hydrate at 3.0mL/kg and placed on the operating table in right lateral position. The rats were shaved and the operating area was disinfected using iodine tincture and 75% ethanol. The left urethra was exposed and isolated after a left lateral incision was made on the abdominal area and skin, muscles and all other layers of the abdominal wall were incised sequentially. In the sham group, the left urethra was only isolated without being ligated or cut off. In all other animals, the left urethra was ligated with No. 4 suture and obstructed followed by closure of the abdominal wall layer by layer. The animals were anaesthetised again with 10% chloral hydrate 10 days later, blood was collected and serum was separated to determine FN levels. The left kidney was removed after thorough rinsing and then fixed in 4% paraformaldehyde buffer. HYP level was determined according to instructions provided with the kit.

## O=C(/C=C/c1ccc(O)c(O)c1)O[C@H](Cc1ccc(O)c(O)c1)C(=O)O [RA, R(+)2-{[3-(3,4-dihydroxylphenyl-(oxo-2-propenyl)oxy]3,4-dihydroxylphenylpropionic acid]}]
RA treated animals vs model group
  kidney lesions, light microscopic examination: improvement of various degrees in lesions
i.v. 2.5, 5, 25, 75, 150 mg/kg, p.o. 5, 25, 150, 300 mg/kg, p<0.05 or 0.01
  FN and HYP levels vs model group: can all significantly reduce FN and HYP levels
i.v. 2.5 mg/kg
  HYP: 612 ± 102 µg/g
  FN: 22.7 ± 6.0 mg/L
i.v. 5 mg/kg
  HYP: 605 ± 118 µg/g
  FN: 19.9 ± 6.3 mg/L
i.v. 25 mg/kg
  HYP: 573 ± 98 µg/g
  FN: 17.7 ± 6.2 mg/L
i.v. 75 mg/kg
  HYP: 533 ± 94 µg/g
  FN: 16.5 ± 4.3 mg/L
i.v. 150 mg/kg
  HYP: 526 ± 121 µg/g
  FN: 16.4 ± 4.4 mg/L
p.o. 2.5 mg/kg
  HYP: 705 ± 162 µg/g
  FN: 22.4 ± 6.5 mg/L
p.o. 5 mg/kg
  HYP: 612 ± 118 µg/g
  FN: 19.8 ± 6.2 mg/L
p.o. 25 mg/kg
  HYP: 573 ± 98 µg/g
  FN: 17.5 ± 6.3 mg/L
p.o. 150 mg/kg
  HYP: 563 ± 94 µg/g
  FN: 17.2 ± 4.3 mg/L
p.o. 300 mg/kg
  HYP: 556 ± 121 µg/g
  FN: 17.2 ± 4.4 mg/L
